Values quoted from earlier work, collected in patent US20180153800A1, “PERSONAL LUBRICANT PROVIDING SEQUENTIAL MULTISENSORIAL PERCEPTIONS AND ARTICLES INCORPORATING SUCH LUBRICANT” (Church & Dwight Co., Inc., priority 2016, published 2018).

System: human tissue

| Compound | time of onset of cooling sensation (after tissue contact) | sensation duration (cooling sensation) | cooling sensation relative to menthol (reference menthol) [times] |
| --- | --- | --- | --- |
| CC1CCC(C(C)C)C(OC(=O)CCC(=O)N(C)C)C1 (stereo not drawn) [2-isopropyl-5-methylcyclohexyl 4-(dimethylamino)-4-oxobutanoate] | about 25 seconds | about 11.25 minutes | – |
| CC1CCC(C(C)C)C(C(=O)Nc2ccc(CC#N)cc2)C1 (stereo not drawn) [N-(4-cyanomethylphenyl) p-menthanecarboxamide] | – | – | 10 |
